Experimental data reported in BindingDB's records for patent US10065950 (Japan Tobacco Inc, 2018).
pIC50: −log10 of the molar value.

Biological target: Gag-Pol polyprotein (Human immunodeficiency virus type 1 group M subtype B (isolate NY5), UniProt P12497)
Assay: HIV Integrase Inhibitory Assay
Conditions: 25 °C

Work on `CCN1C(=O)c2c(O)c(=O)c(-c3nnc(Cc4ccc(F)cc4)s3)cn2[C@@H](C)[C@H]1COC` [US10065950, Example 14] yielded a pIC50 of 8.00.

In the case of `CCOC[C@@H]1Cn2cc(-c3nnc(Cc4ccc(F)cc4)s3)c(=O)c(O)c2C(=O)N1CC1CC1` [US10065950, Example 11], the pIC50 was 8.19.

Work on `CCOC[C@@H]1Cn2cc(-c3nnc(Cc4ccc(F)cc4)s3)c(=O)c(O)c2C(=O)N1C(C)C` [US10065950, Example 12] yielded a pIC50 of 8.14.

Work on `CC(C)N1C[C@H](C)n2cc(-c3nnc(Cc4ccc(F)cc4)s3)c(=O)c(O)c2C1=O` [US10065950, Example 5] yielded a pIC50 of 8.13.

Work on `COC[C@@H]1Cn2cc(-c3nnc(Cc4ccc(F)cc4)s3)c(=O)c(O)c2C(=O)N1C(C)C` [US10065950, Example 3] yielded a pIC50 of 8.07.

Work on `CCOC[C@@H]1Cn2cc(-c3nnc(Cc4ccc(F)cc4)s3)c(=O)c(O)c2C(=O)N1CC` [US10065950, Example 13] yielded a pIC50 of 8.19.

Molecule `CCN1C[C@](C)(C(=O)N2CCC2)n2cc(-c3ncc(Cc4ccc(F)cc4)s3)c(=O)c(O)c2C1=O` [US10065950, Example 17] has a pIC50 of 8.10.

With `COC[C@@H]1Cn2cc(-c3nnc(Cc4ccc(F)cc4)s3)c(=O)c(O)c2C(=O)N1CC1CC1` [US10065950, Example 10] the pIC50 was 8.06.

`CC(C)N1C(=O)c2c(O)c(=O)c(-c3nnc(Cc4ccc(F)cc4)s3)cn2C[C@H]1C` [US10065950, Example 6] gave a pIC50 of 8.25.

Work on `CCN1C(=O)c2c(O)c(=O)c(-c3nnc(Cc4ccc(F)cc4)s3)cn2C[C@H]1COC` [US10065950, Example 9] yielded a pIC50 of 8.04.

In the case of `COCCOC[C@H]1CN(C(C)C)C(=O)c2c(O)c(=O)c(-c3nnc(Cc4ccc(F)cc4)s3)cn21` [US10065950, Example 15], the pIC50 was 7.89.

`COCCOC[C@H]1CN(C2CC2)C(=O)c2c(O)c(=O)c(-c3nnc(Cc4ccc(F)cc4)s3)cn21` [US10065950, Example 16] was tested, and the pIC50 was 7.70.

`COC[C@H]1CN(C(C)C)C(=O)c2c(O)c(=O)c(-c3nnc(Cc4ccc(F)cc4)s3)cn21` [US10065950, Example 4] was tested, and the pIC50 was 8.00.
